From BindingDB's records for PubMed 1874734 (Laboratoires Glaxo, 1991)
pIC50: −log10 of the molar value.

Molecular target: cAMP-dependent protein kinase catalytic subunit alpha (Rattus norvegicus, UniProt P27791)
Experiment: PKA assay

| Compound | pIC50 |
| --- | --- |
| CN1CCCC1CCn1cc(C2=C(c3c[nH]c4ccccc34)C(=O)NC2=O)c2ccccc21 (configuration not stated) [3-(1H-indol-3-yl)-4-{1-[2-(1-methylpyrrolidin-2-yl)ethyl]-1H-indol-3-yl}-2,5-dihydro-1H-pyrrole-2,5-dione] | 5.70 |
| CN(C)CCCn1cc(C2=C(c3c[nH]c4ccccc34)CNC2=O)c2ccccc21 [3-[1-(3-dymethylaminopropyl)-indol-3-yl]-4-(indol-3-yl)-3-pyrrolin-2-one] | < 5.00 |
